Laboratory results: patent publication US20260158002A1, “APPLICATION OF COMPOSITION CONTAINING EDARAVONE AND DEXBORNEOL IN IMPROVING OR TREATING COGNITIVE IMPAIRMENT” (NEURODAWN PHARMACEUTICAL CO., LTD., priority 2021, published 2026)

Columns and labels:
primary cortical neurons = assay: Aβ1-42-induced primary cortical neuronal injury test (Luminescent Cell Viability Assay); type: cell-based, rat; details: single agent, pre-incubation 30 min before oligomerized Aβ1-42 50 μM, 24 h; edaravone 3.7 to 100 μM, dexborneol 1.2 to 100 μM; vs DMSO group
Procedure: A SD pregnant rat at 18 days of pregnancy was sacrificed by cervical dislocation, the uteruses of the rat were dissected, the brain of E18 fetal rat was taken out, the cerebral cortical tissue of the fetal rat was isolated into an ice-cold DMEM, the meninge and blood vessels were removed from the cortical tissue under a dissecting microscope, the cortical tissue was transferred to an ice-cold DMEM and minced (about 1 mm^3), and digested with trypsin at 37° C. for 10 min, the digestion was terminated with FBS, a Pasteur pipette was used to perform gentle pipetting and dispersing, and screening was then performed using a 200-mesh sieve. […] The cells were counted by a hemocytometer, diluted to 5×10^5 cells/ml with a complete medium, and seeded in a 96-well plate coated with PDL (100 μL/well) for culture. […]
The medium of the in vitro matured primary neurons was replaced with a complete medium containing different concentrations (1.2, 3.7, 11.1, 33.3, 100.0 μM) of edaravone (E), dexborneol (B) or an edaravone and dexborneol composition (EB), after incubation at 37° C. for 30 min, oligomerized Aβ1-42 (final concentration of 50 μM) was added, the culture was continued for 24 h, and the neuronal viability was tested. […] LUMbackground is the background reading of the cell-free medium well into which Luminescent Cell Viability Assay kit is added. […]

[1] = test system: pro-inflammatory factors (TNF-α, IL-1β, etc.) and inflammatory proteins (iNOS and COX-2); details: cited from earlier work
GABAAR receptors = details: cited from earlier work

In the case of `CC1(C)[C@@H]2CC[C@@]1(C)[C@@H](O)C2` [dexborneol, (+)-borneol], the “inhibiting Aβ-induced neurotoxicity, increasing the cell viability” value (primary cortical neurons) is listed as “capable of inhibiting Aβ-induced neurotoxicity in a concentration-dependent manner”, the “pro-inflammatory factors and inflammatory proteins within the brain” value [1] is listed as “reduce multiple pro-inflammatory factors (TNF-α, IL-1β, etc.) and inflammatory proteins (iNOS and COX-2) within the brain” and the “agonism of inhibitory GABAAR receptors” value (GABAAR receptors) is listed as “can agonize inhibitory GABAAR receptors”.
